Patent publication US11279686B2, “Nrf2 activating compounds and uses thereof” (Rigel Pharmaceuticals, Inc., priority 2016, dated 2022)
Structures can show the parent of a compound that is named as a salt.

Tested on: experimental autoimmune encephalomyelitis (EAE)
Test: Experimental autoimmune encephalomyelitis (EAE) animal model
Format: in vivo, C57BL/6 mice
Conditions: dosed at 60 mg/kg beginning on the day of immunization

Structure (SMILES)	onset of disease paralysis
COC(=O)/C=C/n1nn[nH]c1=O [methyl (E)-3-(5-oxo-4,5-dihydro-1H-tetrazol-1-yl)acrylate]	significantly prevents

Tested on: NrF2 (Nuclear factor (erythroid-derived 2)-like 2)
Test: NrF2 activation in a whole cell nuclear translocation assay
Format: cell-based
Conditions: read-out: NrF2 translocation assay EC50; whole cell nuclear translocation; Table 2
Method: NrF2 Activation in a Whole Cell Nuclear Translocation Assay
Compounds were tested in a NrF2 (Nuclear factor (erythroid-derived 2)-like 2) translocation assay by adapting the methods set forth in U.S. Pat. No. 8,101,373, the disclosure of which is incorporated herein by reference.

Structure (SMILES)	EC50 [nM]
CS(=O)(=O)/C=C/n1nnn(-c2cccnc2)c1=O [Compound 3, (E)-1-(2-(methylsulfonyl)vinyl)-4-(pyridin-3-yl)-1,4-dihydro-5H-tetrazol-5-one]	120
CS(=O)(=O)/C=C/C(=O)O [Compound 15, (E)-3-(methylsulfonyl)acrylic Acid]	44800

Same assay, conditions: reference fumarates; read-out: NrF2 activation EC50

EC50 [nM]	Structure (SMILES)
~127000	COC(=O)/C=C/C(=O)O [Monomethyl fumarate, reference compound]
~7900	COC(=O)/C=C/C(=O)OC [dimethyl fumarate, reference compound]

Same assay, conditions: whole cell nuclear translocation; Table 2; read-out: NrF2 translocation assay EC50

EC50 [nM]	Structure (SMILES)
290	Cc1ccc(S(=O)(=O)/C=C/n2nnn(-c3cccnc3)c2=O)cc1 [Compound 1, (E)-1-(pyridin-3-yl)-4-(2-tosylvinyl)-1,4-dihydro-5H-tetrazol-5-one]
750	COC(=O)/C=C/S(=O)(=O)c1ccc(NC(C)=O)cc1 [Compound 4]
1000	COC(=O)/C=C/S(C)(=O)=O [Compound 5]
790	COC(=O)/C=C\S(=O)(=O)c1ccc(F)cc1 [Compound 6]
< 390	CCOC(=O)/C=C/S(=O)(=O)c1ccccc1 [Compound 7]
< 390	COC(=O)/C=C/S(=O)(=O)c1ccc(Br)cc1 [Compound 8]
< 390	COC(=O)/C=C/S(=O)(=O)c1ccc2ccccc2c1 [Compound 9]
190	CCn1nnn(/C=C/S(=O)(=O)c2ccc(C)cc2)c1=O [Compound 16, (E)-1-ethyl-4-(2-tosylvinyl)-1,4-dihydro-5H-tetrazol-5-one]
170	Cc1ccc(S(=O)(=O)/C=C/n2nnn(Cc3ccccc3)c2=O)cc1 [Compound 17, (E)-1-benzyl-4-(2-tosylvinyl)-1,4-dihydro-5H-tetrazol-5-one]
200	Cn1nnn(/C=C/S(=O)(=O)c2ccc(F)cc2)c1=O [Compound 18, (E)-1-(2-((4-fluorophenyl)sulfonyl)vinyl)-4-methyl-1,4-dihydro-5H-tetrazol-5-one]
30	O=c1n(/C=C/S(=O)(=O)c2ccc(F)cc2)nnn1-c1cccnc1 [Compound 19, (E)-1-(2-((4-fluorophenyl)sulfonyl)vinyl)-4-(pyridin-3-yl)-1,4-dihydro-5H-tetrazol-5-one]

Tested on: not listed separately
Test: Glutathione depletion assay (Michael reaction with reduced glutathione followed by 1H NMR)
Conditions: 2 equiv. reduced glutathione, d6-DMSO, 35° C.
Source text: See, for example, Lehmann et al. Dimethyfumarate Induces Immunosuppression via Glutathione Depletion and Subsequent Induction of Heme Oxygenase 1, Journal of Investigative Dermatology (2007) 127, 835-845. Accordingly, the present compounds may be assessed in vitro by reaction with glutathione as follows:
(with the top securely fastened).
In all the above cases, dis-appearance of the alkene proton signals from the starting material are used to determine the extent of Michael reaction with glutathione.
As would be understood by those of skill in the art, the above experiments can be repeated by varying the equivalents of reduced glutathione (0.5 to 2 equivalents); the reactions can also be run in a mixture of d6-DMSO and D2O; and the temperature of the reaction can also be varied from room temperature to 35° C. (35° C. being used to mimic body temperature). As used herein “majority reaction” means a greater than 50% reduction in alkene proton signal as observed by ^1H NMR.

Structure (SMILES)	time to majority reaction with glutathione (greater than 50% reduction in alkene proton signal by 1H NMR) [h]
COC(=O)/C=C/n1nnn(C)c1=O [methyl (E)-3-(4-methyl-5-oxo-4,5-dihydro-1H-tetrazol-1-yl)acrylate]	≤ 30
COC(=O)/C=C/n1nn[nH]c1=O [methyl (E)-3-(5-oxo-4,5-dihydro-1H-tetrazol-1-yl)acrylate]	≤ 30
